Data published in patent US8975415B2, “Chromane compounds” (CoMentis, Inc., priority 2012, dated 2015).
Where a name gives a salt, the structure may show the parent alone. Read-outs that look alike come from different tables or passages of the source.

What was measured:
[1] = target: hERG potassium channel (Homo sapiens (Human), UniProt Q12809); experiment: hERG inhibition, automated planar patch-clamp in hERG-expressing CHO cells; conditions: for selectivity ratio: human, CHO-K1 cells stably expressing hERG, pH 7.4
Chain of hERG potassium channel (Q12809 whole entry): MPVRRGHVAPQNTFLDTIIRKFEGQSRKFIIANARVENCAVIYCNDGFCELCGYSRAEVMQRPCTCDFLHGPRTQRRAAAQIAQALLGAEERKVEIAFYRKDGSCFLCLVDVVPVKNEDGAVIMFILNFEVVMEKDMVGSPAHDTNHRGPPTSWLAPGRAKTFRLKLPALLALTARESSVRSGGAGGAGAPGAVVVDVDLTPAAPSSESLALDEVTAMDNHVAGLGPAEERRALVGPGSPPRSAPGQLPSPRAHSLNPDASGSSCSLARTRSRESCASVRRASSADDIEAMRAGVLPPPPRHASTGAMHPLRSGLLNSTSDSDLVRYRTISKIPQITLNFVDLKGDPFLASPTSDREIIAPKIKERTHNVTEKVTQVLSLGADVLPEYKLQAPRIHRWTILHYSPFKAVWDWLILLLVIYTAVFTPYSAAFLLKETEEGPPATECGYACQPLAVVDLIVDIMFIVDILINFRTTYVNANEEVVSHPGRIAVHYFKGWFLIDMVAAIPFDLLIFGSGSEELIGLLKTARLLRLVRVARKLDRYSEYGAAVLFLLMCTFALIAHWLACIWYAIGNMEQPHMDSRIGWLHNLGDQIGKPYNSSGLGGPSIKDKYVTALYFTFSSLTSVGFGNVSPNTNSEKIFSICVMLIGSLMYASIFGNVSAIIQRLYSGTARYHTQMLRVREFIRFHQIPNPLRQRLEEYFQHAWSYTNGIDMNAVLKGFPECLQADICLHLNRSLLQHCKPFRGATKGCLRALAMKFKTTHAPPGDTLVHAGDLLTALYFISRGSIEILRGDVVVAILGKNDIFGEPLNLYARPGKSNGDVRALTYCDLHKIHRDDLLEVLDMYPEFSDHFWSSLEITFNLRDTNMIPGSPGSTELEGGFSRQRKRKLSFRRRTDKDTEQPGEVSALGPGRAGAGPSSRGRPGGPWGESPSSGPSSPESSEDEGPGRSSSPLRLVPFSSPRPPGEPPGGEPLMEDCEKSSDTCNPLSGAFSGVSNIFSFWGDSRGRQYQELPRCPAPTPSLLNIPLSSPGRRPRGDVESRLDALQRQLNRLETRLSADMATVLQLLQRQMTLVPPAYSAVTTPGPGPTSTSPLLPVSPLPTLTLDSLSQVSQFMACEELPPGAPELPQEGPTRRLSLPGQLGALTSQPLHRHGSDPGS

[2] = target: T1, BACE1 (Homo sapiens (Human), UniProt P56817); experiment: Measurement of Aβ production inhibition in cell (SK-N-BE(2) neuroblastoma cells, Aβ40 ELISA); conditions: SK-N-BE(2) cells, 6 hours
Target sequence in this assay (P56817 46-501): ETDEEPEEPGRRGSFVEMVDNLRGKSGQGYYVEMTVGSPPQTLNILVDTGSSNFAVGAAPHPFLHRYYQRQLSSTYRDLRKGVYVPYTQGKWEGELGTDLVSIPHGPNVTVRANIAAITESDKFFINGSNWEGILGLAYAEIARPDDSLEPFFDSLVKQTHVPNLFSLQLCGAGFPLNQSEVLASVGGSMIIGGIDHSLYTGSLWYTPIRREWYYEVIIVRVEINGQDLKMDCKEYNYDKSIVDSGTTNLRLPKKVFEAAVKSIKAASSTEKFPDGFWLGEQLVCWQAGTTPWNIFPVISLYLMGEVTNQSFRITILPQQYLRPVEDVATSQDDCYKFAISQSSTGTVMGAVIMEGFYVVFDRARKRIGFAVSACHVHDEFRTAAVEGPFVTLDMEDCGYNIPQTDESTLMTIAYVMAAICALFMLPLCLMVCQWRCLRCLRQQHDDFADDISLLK
Method: The potency of compounds against BACE1 activity was determined in a cellular assay of Aβ production. […] Test compounds were dissolved in dimethyl sulfoxide and diluted with dimethyl sulfoxide and put into RPMI1640/5% FBS/penicillin-streptomycin media (final dimethyl sulfoxide concentration is 0.5%). […] CellTiter-Glo Substrate was dissolved into CellTiter-Glo Buffer and added to the plates in 95 μL/well. After shaking the plates for 2 minutes, the whole sample was transferred into a white 96-well plate and luminescence was measured for ATP quantification as the cell viability. Aβ concentration measured by ELISA was normalized by the viability of the corresponding cells.

[3] = target: T1, BACE1; experiment: Measurement of BACE1 inhibition by fluorescence resonance energy transfer (FRET), MCA substrate; conditions: for IC50: read-out: Test Example 1 IC50, MCA-SEVNLDAEFK(DNP)-NH2 substrate, pH 4.4
Target sequence in this assay (P56817 75-416): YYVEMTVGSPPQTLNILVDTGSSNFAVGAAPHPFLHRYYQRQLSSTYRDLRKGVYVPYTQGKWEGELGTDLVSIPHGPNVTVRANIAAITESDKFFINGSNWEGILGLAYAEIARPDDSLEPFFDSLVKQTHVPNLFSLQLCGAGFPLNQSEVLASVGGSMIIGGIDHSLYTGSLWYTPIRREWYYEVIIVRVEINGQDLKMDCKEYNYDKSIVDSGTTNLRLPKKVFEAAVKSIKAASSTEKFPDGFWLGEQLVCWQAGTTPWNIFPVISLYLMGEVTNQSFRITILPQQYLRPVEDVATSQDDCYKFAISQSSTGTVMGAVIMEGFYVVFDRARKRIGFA

[4] = read-out: Test Example 5 hERG IC50, whole-cell patch clamp, room temperature
[5] = Test Example 3 IC50, Aβ40 production
[6] = read-out: Test Example 1 BACE1 MCA Ki, FRET, MCA substrate
[7] = read-out: Test Example 3 IC50, Aβ40 production

SMILES | IC50 [1, 4] | IC50 [2, 5] | IC50 ([3]; FRET) | further results
NC1=NC2(CO1)c1cc(Nc3ncccc3Cl)ccc1OCC21COC1 (stereo not drawn) [RP 43, 6′-(3-chloropyridin-2-yl)aminodispiro[1,3-oxazole-4,4′-chromene-3′,3″-oxetane]-2-amine] | > 10 µM | 1400 nM | 1960 nM | 
C[C@@H]1Oc2ccc(-c3cccnc3F)cc2[C@@]2(COC(N)=N2)C12COC2 (racemic) [RP 79] | > 10 µM |  |  | 
CCOc1cncc(-c2ccc3c(c2)C2(COC(N)=N2)C2(CC2)CO3)c1 (stereo not drawn) [RP 106] | 5.75 µM | 160 nM | 1830 nM | 
NC1=NC2(CO1)c1cc(-c3cncnc3)c(F)cc1OCC21CC1 (stereo not drawn) [RP 102] | > 10 µM | 240 nM | 1610 nM | 
CC1(C)Oc2ccc(NC(=O)c3ccc(F)cn3)cc2[C@@]2(COC(N)=N2)C12CC2 [Example 222] | > 10 µM | 0.62 nM | 138 nM | selectivity ratio [1]: > 109; Ki [3, 6]: 91.5 nM
CC1(C)Oc2ccc(Br)cc2C2(CSC(N)=N2)C12COC2 (stereo not drawn) [RP 42] | > 10 µM | 5900 nM | 16100 nM | 
COc1cccnc1Nc1ccc2c(c1)C1(COC(N)=N1)C1(COC1)C1(CCC1)O2 (stereo not drawn) [RP 45] | > 10 µM | 57 nM | 1040 nM | 
CC1(C)Oc2ccc(Br)cc2C2(COC(N)=N2)C12COC2 (stereo not drawn) [RP 6, 6′-bromo-2′,2′-dimethyldispiro[1,3-oxazole-4,4′-chromene-3′,3″-oxetan]-2-amine] | > 10 µM | 3900 nM | 11700 nM | 
COc1cncc(-c2ccc3c(c2)C2(COC(N)=N2)C2(CC2)CO3)c1 (stereo not drawn) [RP 105] | 7.9 µM | 340 nM | 2940 nM | 
NC1=NC2(CO1)c1cc(-c3cncc(OCC(F)F)c3)ccc1OCC21CC1 (stereo not drawn) [RP 59] | 6.9 µM | 76 nM | 1110 nM | 
CC#Cc1cncc(-c2ccc3c(c2)C2(CSC(N)=N2)C2(COC2)CO3)c1 (stereo not drawn) [RP 68] | 6.05 µM | 500 nM | 345 nM | 
CC(C)CC1Oc2ccc(-c3cncnc3)cc2C2(COC(N)=N2)C12COC2 (stereo not drawn) [RP 90] | > 10 µM |  | 901 nM | 
N#Cc1cnc(C(=O)Nc2ccc3c(c2)C2(COC(N)=N2)C2(CC2)CO3)c(Cl)c1 (stereo not drawn) [RP 192] | > 10 µM |  | 318 nM | Ki [3, 6]: 280 nM
NC1=NC2(CO1)c1cc(Br)ccc1OC(Cc1ccccc1)C21COC1 (single isomer, unassigned) [RP 15a] | > 10 µM | 1100 nM | 1720 nM | 
Cc1cnc(C(=O)Nc2ccc3c(c2)C2(COC(N)=N2)CC(C)(C)C3)cn1 (racemic) [WO2011/123674 Example 98, reference compound] |  |  |  | IC50 [1]: 9.46 µM; selectivity ratio [1]: 2.3; Ki [3]: 4090 nM
NC1=NC2(CO1)c1cc(-c3cncnc3)ccc1OC(Cc1ccccc1)C21COC1 (stereo not drawn) [RP 202] | 7.73 µM |  | 145 nM | IC50 [2, 7]: 26 nM; Ki [3, 6]: 113 nM
CCc1cncc(-c2ccc3c(c2)C2(COC(N)=N2)C2(CC2)CO3)c1 (stereo not drawn) [RP 63] | 4.48 µM | 3300 nM | 7900 nM | 
NC1=NC2(CO1)c1cc(-c3cncc(C(F)(F)F)c3)ccc1OC1(CCC1)C21COC1 (stereo not drawn) [RP 99] | > 10 µM | 1900 nM | 2970 nM | 
CC1(C)Oc2ccc(-c3cncnc3)cc2C2(CSC(N)=N2)C12COC2 (stereo not drawn) [RP 54, 2′,2′-dimethyl-6′-(pyrimidin-5-yl)dispiro[oxetane-3,3′-chromene-4′,4″-[1,3]thiazol]-2″-amine hydrochloride] | > 10 µM | 79 nM | 406 nM | 
C[C@H]1Oc2ccc(-c3cccnc3F)cc2[C@@]2(COC(N)=N2)C12COC2 (racemic) [RP 77] |  |  |  | IC50 [1]: > 10 µM
NC1=NC2(CO1)c1cc(-c3cnc4[nH]ccc4c3)ccc1OCC21CC1 (stereo not drawn) [RP 61, 6′-(1H-pyrrolo[2,3-b]pyridin-5-yl)dispiro[cyclopropane-1,3′-chromene-4′,4″-[1,3]oxazol]-2″-amine] | 9.22 µM | 350 nM |  | 
Cc1cnnc(-c2ccc3c(c2)C2(COC(N)=N2)C2(COC2)C2(CCC2)O3)c1 (stereo not drawn) [RP 76] | > 10 µM |  | 13400 nM | 
NC1=NC2(CO1)c1cc(Br)ccc1OC1(CCCC1)C21COC1 (stereo not drawn) [RP 10] | > 10 µM |  | 7210 nM | 

SMILES | IC50 [1, 4] | IC50 [2, 5] | IC50 ([3]; FRET) | further results
CC1(C)Cc2ccc(NC(=O)c3ccc(Cl)cn3)cc2C2(COC(N)=N2)C1 (racemic) [WO2011/123674 Example 89, reference compound] |  |  |  | IC50 [1]: 0.44 µM; selectivity ratio [1]: 1.8; Ki [3]: 241 nM
NC1=NC2(CO1)c1cc(Br)ccc1OC(CC1CC1)C21COC1 (single isomer, unassigned) [RP 16a] | > 10 µM |  | 9540 nM | 
COc1cnc(C(=O)Nc2ccc3c(c2)C2(COC(N)=N2)C2(COC2)C(C)(C)O3)cn1 (stereo not drawn) [Example 227] | > 10 µM |  |  | 
NC1=NC2(c3cc(-c4cncnc4)ccc3OCC23CC3)C(F)(F)CS1 (stereo not drawn) [RP 198, 5″,5″-difluoro-6′-(pyrimidin-5-yl)-5″,6″-dihydrodispiro[cyclopropane-1,3′-chromene-4′,4″-[1,3]thiazin]-2″-amine] | > 1 µM |  | 14900 nM | 
Cc1cc(C#N)cnc1C(=O)Nc1ccc2c(c1)C1(COC(N)=N1)C1(CC1)CO2 (stereo not drawn) [RP 191] | > 10 µM |  |  | 
N#Cc1cccc(-c2ccc3c(c2)C2(COC(N)=N2)C2(COC2)C2(CCC2)O3)c1 (stereo not drawn) [RP 128] |  | 1500 nM | 1680 nM | 
N#Cc1ncccc1-c1ccc2c(c1)C1(COC(N)=N1)C1(COC1)C1(CCC1)O2 (stereo not drawn) [RP 115, 3-(2″-aminotrispiro[cyclobutane-1,2′-chromene-4′,4″-[1,3]oxazole-3′,3′″-oxetan]-6′-yl)pyridine-2-carbonitrile] |  | 1100 nM | 3310 nM | 
NC1=NC2(CO1)c1cc(-c3cncc(OCC(F)(F)F)c3)ccc1OCC21CC1 (stereo not drawn) [RP 58] |  | 180 nM | 1480 nM | 
Cc1cc(F)cc(-c2ccc3c(c2)C2(COC(N)=N2)C2(COC2)C(C)(C)O3)c1 (stereo not drawn) [RP 148] |  | 480 nM | 614 nM | 
CC#Cc1cncc(-c2ccc3c(c2)C2(COC(N)=N2)C2(COC2)C2(CCC2)O3)c1 (stereo not drawn) [RP 109] |  | 48 nM | 152 nM | Ki [3, 6]: 120 nM
CC#Cc1cncc(-c2ccc3c(c2)C2(COC(N)=N2)C2(COC2)C(CCC(F)(F)F)O3)c1 (stereo not drawn) [RP 96] |  | 22 nM | 126 nM | Ki [3, 6]: 868 nM
C#Cc1cncc(-c2ccc3c(c2)C2(COC(N)=N2)C2(COC2)CO3)c1 (stereo not drawn) [RP 23] |  | 900 nM | 519 nM | 
COc1cccnc1Nc1ccc2c(c1)C1(COC(N)=N1)C1(COC1)CO2 (stereo not drawn) [RP 26] |  | 69 nM | 3750 nM | 
CC1(C)Oc2ccc(NC(=O)c3ccc(F)cn3)cc2C2(COC(N)=N2)C12COC2 (stereo not drawn) [Example 28] |  |  |  | IC50 [2, 7]: 19 nM; Ki [3, 6]: 117 nM
COc1ccc(F)c(-c2ccc3c(c2)C2(COC(N)=N2)C2(COC2)CO3)c1 (stereo not drawn) [RP 33] |  | 950 nM | 1520 nM | 
NC1=NC2(CO1)c1cc(-c3cc(Cl)cnc3F)ccc1OC1(CCC1)C21COC1 (stereo not drawn) [RP 73] |  | 70 nM | 827 nM | 
NC1=NC2(CO1)c1cc(Nc3ncccc3Cl)ccc1OC1(CCC1)C21COC1 (stereo not drawn) [RP 44] |  | 98 nM | 602 nM | 
Cc1cnc(F)c(-c2ccc3c(c2)C2(COC(N)=N2)C2(COC2)C2(CCC2)O3)c1 (stereo not drawn) [RP 116, 6′-(2-fluoro-5-methylpyridin-3-yl)trispiro[cyclobutane-1,2′-chromene-4′,4″-[1,3]oxazole-3′,3′″-oxetan]-2″-amine] | > 10 µM |  |  | 
NC1=NC2(CO1)c1cc(-c3cncnc3)ccc1OCC21CCC1 (stereo not drawn) [RP 101] | 5.28 µM |  | 7650 nM | 
NC1=NC2(CO1)c1cc(-c3cncc(OC(F)F)c3)ccc1OCC21CC1 (stereo not drawn) [RP 60] |  | 160 nM | 1480 nM | 
NC1=NC2(CO1)c1cc(-c3cncc(F)c3)ccc1OC1(CCC1)C21COC1 (stereo not drawn) [RP 70] |  | 960 nM | 1750 nM | 
CCOc1cc(-c2ccc3c(c2)C2(COC(N)=N2)C2(COC2)C2(CCC2)O3)cc(C(F)(F)F)c1 (stereo not drawn) [RP 129] |  | 7300 nM | 2210 nM | 
